The record followed here is US11802135B2, “Lysophosphatidic acid derivative” (MITSUBISHI TANABE PHARMA CORPORATION, priority 2021, dated 2023).

Where a name gives a salt, the structure may show the parent alone. Read-outs that look alike come from different tables or passages of the source.

One data set addresses T1, human LPA1 receptor (Homo sapiens, UniProt Q92633).
T1 construct: expressed in transfected cells; host or cells: rat hepatocellular carcinoma cell line RH7777 (made 'similarly' to the LPA4 line)
As to the kind of experiment: LPA1/SRE-luc reporter assay in RH7777 cells stably expressing human LPA1 receptor and SRE-Luc2. Type of data set: cell-based. As to the method: (§1) A stably expressing cell line that constantly expresses the human LPA4 receptor and SRE-Luc2 was established by the gene targeting introduction method of the rat hepatocellular carcinoma cell line RH7777 into rRosa26 site. Similarly, stably expressing cell lines for human LPA1 receptor and SRE-Luc2 were also established. Each cell line was seeded on a collagen-coated dish and maintained in culture, and cells were collected with trypsin EDTA and the required number (5×10^3 cells/well) was seeded on a 96-well plate. After culturing overnight at 37° C., LPA (Avanti Polar Lipids, Inc.) or each Example compound diluted with an assay medium added or not added with BSA was added, and the cells were cultured at 37° C. for 6 hr. Thereafter, a luciferase detection reagent (Bright-Glo, Promega) was added, and the chemiluminescence amount was quantified with an Envision (registered trade mark) multi-label counter (PerkinElmer) and used as an index of agonist activity.
(§2) The EC50 value of LPA or each Example compound was calculated using the […] Graph pad Prism for Windows ver.5.02 and ver.7.04. % Emax was expressed as the ratio of the maximum response (Emax) of LPA or each Example compound to the maximum response (Emax) of the positive control compound VPC 31144S (N-{(1S)-2-hydroxy-1-[(phosphonooxy)methyl]ethyl}(9Z) cctadec-9-enamide), with the Emax of the positive control compound VPC 31144S as 100%.

The next data set deals with T2, human LPA4 receptor (Homo sapiens, UniProt Q99677).
T2 construct: expressed in transfected cells; host or cells: rat hepatocellular carcinoma cell line RH7777, targeted integration at the rRosa26 site
T2 sequence (Q99677 whole entry): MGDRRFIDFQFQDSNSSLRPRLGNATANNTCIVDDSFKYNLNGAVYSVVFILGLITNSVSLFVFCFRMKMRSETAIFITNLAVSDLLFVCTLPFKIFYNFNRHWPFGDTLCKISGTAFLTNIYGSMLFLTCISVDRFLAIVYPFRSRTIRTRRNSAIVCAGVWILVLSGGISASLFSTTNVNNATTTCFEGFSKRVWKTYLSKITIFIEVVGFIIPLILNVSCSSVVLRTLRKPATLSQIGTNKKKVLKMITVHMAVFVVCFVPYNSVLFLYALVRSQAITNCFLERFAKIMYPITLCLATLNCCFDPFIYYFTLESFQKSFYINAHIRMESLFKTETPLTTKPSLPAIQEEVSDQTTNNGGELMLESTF
As to the kind of experiment: LPA4/SRE-luc reporter assay in RH7777 cells stably expressing human LPA4 receptor and SRE-Luc2. Type of data set: cell-based. How it is done: as §1, §2
For orientation: A reporter such as luciferase makes a cellular process visible.

A further data set deals with Balb/c nu/nu mouse. In words: Gel blood flow ratio in mice transplanted with Matrigel containing basicFGF. The data set is classed as in vivo. As to conditions: 3 mg/kg tail vein once per day, day 5 to 7 after transplantation; vs solvent administration group, t-test p<0.01. As to the method:
A 5-week-old male Balb/c nu/nu mouse (CLEA Japan, Inc.) was subcutaneously transplanted with 500 μL of Matrigel (Corning) admixed with recombinant mouse basicFGF (Biobyt Ltd.) to a final concentration of 200 ng/mL. The test compound was dissolved in a 50% aqueous ethanol solution at a concentration of 10 mg/mL to give a stock solution, diluted with phosphate-buffered saline (PBS) immediately before administration, and used for consecutive administration into the tail vein of mouse at a dose of 3 mg/kg once per day from the 5th day to the 7th day of the transplantation. On the 7th day of transplantation, after 4 hours from the administration of the test compound, Genhance750 (PerkinElmer) was administered to the tail vein, and 20 min later under isoflurane anesthesia, whole body fluorescence at 800 nm was imaged using an in vivo analyzer (IVIS Spectrum, PerkinElmer) at an excitation wavelength of 745 nm. The gel blood flow ratio was calculated by dividing the radiance of Matrigel by the radiance of the auricle.

Data set [1] concerns mouse lung cancer cell line LLC-1. In words: Tumor volume in mice transplanted with LLC-1, combination with paclitaxel. The data set is classed as in vivo. How it is done:
An 8-week-old female […] mouse (Nippon SLC) was subcutaneously transplanted with 1×10^6 cells/100 μL of mouse lung cancer cell line LLC-1 suspended in D-MEM medium containing 50% Matrigel (Corning). On the 9th day after transplantation of the cell line, 8 mice were grouped such that the tumor volume and body weight were uniform (Day 0). The tumor volume was calculated by measuring the minor axis and the major axis of the tumor with a vernier caliper (minor axis x minor axis x major axis/2). Example compound 16 was intraperitoneally administered every day from Day 0 at a dose of 30 mg/kg. As an existing anticancer drug, paclitaxel (paclitaxel injection, Pfizer) was intraperitoneally administered to mice at a dose of 20 mg/kg twice in total on Day 3 and Day 10. The tumor volume of each group was calculated every other day from Day 0 to Day 15. Phosphate-buffered saline in the same amount as the drug solution was administered to the solvent administration group.

Data set [2] in a line: Evaluation of chemical stability, preserved at 60° C. (sealed) for a week, UPLC. Type of data set: physicochemical. As to the method:
About 0.5 mg of each of test sample (lysophosphatidic acid (LPA) and Example compound 16) preserved at 60° C. (sealed) for a week and non-preserved sample (at the start of testing) was weighed, and dissolved in a mixed solution (1 mL) of acetonitrile/water (1:1) to prepare test solutions. Test was performed by the liquid chromatographic method under the following conditions, and individual peak area % was determined. It was measured by Waters ACQUITY UPLC under the following conditions. • Detector: photodiode array (measurement wavelength 220 nm) • Column: Waters ACQUITY BEH C18 (2.1 mm×100 mm, 1.7 μm) • Column temperature: constant temperature around 40° C. • Mobile phase: Solution A; […] ammonium acetate in water (pH 8.5), • Solution B; […] ammonium acetate in acetonitrile/water (17:3) (pH8.5) • Concentration gradient control: B % 2→100% (15 min) • Flow rate: 0.5 mL/min • Injection volume: […] <Experimental Results>

[3] abbreviates: BSA not added, read-out: LPA1/SRE-luc EC50.
The mark [4] stands for this setting: BSA not added, read-out: LPA4/SRE-luc EC50.
The mark [5] stands for this setting: RH7777, read-out: LPA4/SRE-luc % Emax.
[6] abbreviates: BSA added, read-out: LPA1/SRE-luc EC50.
The mark [7] stands for this setting: BSA added, read-out: LPA4/SRE-luc EC50.
Setting [8] is: RH7777, BSA added, Emax of positive control VPC 31144S as 100%, read-out: LPA4/SRE-luc % Emax.

T1 sequence (Q92633 whole entry): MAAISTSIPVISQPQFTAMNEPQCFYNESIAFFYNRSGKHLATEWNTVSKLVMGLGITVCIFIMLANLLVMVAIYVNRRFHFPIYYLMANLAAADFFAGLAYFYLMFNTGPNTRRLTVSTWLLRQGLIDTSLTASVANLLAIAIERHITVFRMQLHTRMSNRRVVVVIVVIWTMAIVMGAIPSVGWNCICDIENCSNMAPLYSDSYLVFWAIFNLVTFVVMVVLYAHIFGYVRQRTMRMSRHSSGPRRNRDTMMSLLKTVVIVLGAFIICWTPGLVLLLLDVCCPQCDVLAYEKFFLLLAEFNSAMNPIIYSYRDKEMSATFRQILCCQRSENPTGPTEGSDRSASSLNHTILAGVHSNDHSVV

On to `CCc1ccc(CCCCCCCCC(=O)N2CC(OP(=O)(O)O)C2)cc1` [Example 16, 1-[9-(4-Ethylphenyl)nonanoyl]azetidin-3-yl dihydrogen phosphate], for which the EC50 on human LPA1 receptor (setting [3]) was over 10000 nM; at human LPA4 receptor (setting [4]) it was 12 nM. Also, on human LPA4 receptor (setting [5]), the Emax was 162%. The “gel blood flow ratio” value with Balb/c nu/nu mouse is recorded as “significantly increased”.
For the compound `CCc1ccc(CCCCCCCCC(=O)N2CC(OP(=O)(O)O)C2)cc1` [Example compound 16, 1-[9-(4-Ethylphenyl)nonanoyl]azetidin-3-yl dihydrogen phosphate], the “tumor volume on Day 15” value in data set [1] (30 mg/kg i.p. every day combined with paclitaxel 20 mg/kg, vs paclitaxel alone group, t-test p<0.01) is given as “further reduced significantly”. Further, the “chemical stability in comparison with LPA” value in data set [2] (60° C. (sealed) for a week) was “high chemical stability”. Also, in data set [2] (60° C., humidity without artificial control, 1 week), the “total ratio (%) of increment of related substances” value was 1.29%.
With `CCCCc1ccc(CCCCCCCCC(=O)N2CC(OP(=O)(O)O)C2)cc1` [Example compound 70, 1-[9-(4-Butylphenyl)nonanoyl]azetidin-3-yl dihydrogen phosphate ammonium salt], the EC50 at human LPA1 receptor (setting [3]) was over 10000 nM; at human LPA4 receptor (setting [4]) it was under 41 nM. In addition, the Emax at human LPA4 receptor (RH7777, BSA not added, Emax of positive control VPC 31144S as 100%, read-out: LPA4/SRE-luc % Emax) was determined as 239%. In the data set on Balb/c nu/nu mouse, the “gel blood flow ratio” value is recorded as “significantly increased”.
Take `O=C(CCCCCCCCc1ccc(-c2ccccc2)cc1)N1CC(OP(=O)(O)O)C1` [Example compound 82, 1-[9-(Biphenyl-4-yl)nonanoyl]azetidin-3-yl dihydrogen phosphate]: the EC50 is over 10000 nM at human LPA1 receptor (setting [6]) and 1.9 nM at human LPA4 receptor (setting [7]). Also, at human LPA4 receptor (setting [8]), the Emax is 129%. Besides, the “gel blood flow ratio” value in the data set on Balb/c nu/nu mouse is “significantly increased”.
With `CC(C)(C)c1ccc(CCCCCCCCC(=O)N2CC(OP(=O)(O)O)C2)cc1` [Example compound 84, 1-[9-(4-tert-Butylphenyl)nonanoyl]azetidin-3-yl dihydrogen phosphate], the EC50 on human LPA1 receptor (setting [6]) was over 3000 nM; on human LPA4 receptor (setting [7]), 4.1 nM. On human LPA4 receptor (setting [8]), the Emax came to 94%. In addition, in the data set with Balb/c nu/nu mouse, the “gel blood flow ratio” value is listed as “significantly increased”.
`COc1ccc(CN(CCOP(=O)(O)O)C(=O)CCCCCc2cccc(CCCCC3CCCCC3)c2)cc1` [Example compound 129, 2-[{6-[3-(4-Cyclohexylbutyl)phenyl]hexanoyl}(4-methoxybenzyl)amino]ethyl dihydrogen phosphate ammonium salt]: the EC50 was over 10000 nM on human LPA1 receptor (setting [6]) and under 41 nM on human LPA4 receptor (setting [7]). In addition, the Emax on human LPA4 receptor (setting [8]) came to 120%.
Turning to `CCCCCCCCCCCOc1cccc(-c2ccnc(NC[C@@H](C)OP(=O)(O)O)c2)c1` [Example compound 133, (2R)-1-({4-[3-(Undecyloxy)phenyl]pyridin-2-yl}amino)propan-2-yl dihydrogen phosphate], the EC50 on human LPA1 receptor (setting [6]) is over 10000 nM; at human LPA4 receptor (setting [7]) it was under 41 nM. Also, the Emax on human LPA4 receptor (setting [8]) turned out to be 101%.
In the case of `CCCCCCCCCCCOc1cccc(-c2ccnc(NC[C@@H](C)OP(=O)(O)O)n2)c1` [Example compound 134, (2R)-1-({4-[3-(Undecyloxy)phenyl]pyrimidinyl}amino)propan-2-yl dihydrogen phosphate], the EC50 on human LPA1 receptor (setting [6]) was over 10000 nM; on human LPA4 receptor (setting [7]), under 41 nM. Also, at human LPA4 receptor (setting [8]), the Emax turned out to be 87%.
Regarding `CCCCCCCCCCCOc1cccc(-c2ccnc(NC[C@@H](C)OP(O)(O)=S)c2)c1` [Example compound 138, O-[(2R)-1-({4-[3-(Undecyloxy)phenyl]pyridin-2-yl}amino)propan-2-yl] dihydrogen phosphorothioate-ammonium salt], the EC50 is over 10000 nM on human LPA1 receptor and under 41 nM on human LPA4 receptor. Besides, at human LPA4 receptor (setting [5]), the Emax was determined as 73%.
Regarding `CCCCCCCCCCCOc1cccc(-c2ccnc(N[C@@H]3CCC[C@@H]3OP(=O)(O)O)c2)c1` [Example compound 142, (1S,2R)-2-({4-[3-(Undecyloxy)phenyl]pyridin-2-yl}amino)cyclopentyl dihydrogen phosphate ammonium salt], the results for the EC50 at human LPA1 receptor (setting [6]) and at human LPA4 receptor (setting [7]) were over 10000 nM and 43 nM, respectively. Further, the Emax at human LPA4 receptor (setting [8]) was found to be 103%.
On to `CC(=O)O[C@H]1C(=O)[C@@]2(C)[C@H]([C@H](OC(=O)c3ccccc3)[C@]3(O)C[C@H](OC(=O)[C@H](O)[C@@H](NC(=O)c4ccccc4)c4ccccc4)C(C)=C1C3(C)C)[C@]1(OC(C)=O)CO[C@@H]1C[C@@H]2O` [paclitaxel, reference compound], for which the “tumor volume on Day 15” value in data set [1] (paclitaxel alone 20 mg/kg i.p. Day 3 and Day 10, vs solvent administration group, t-test p<0.05) is reported as “significantly smaller”.
